Results from the supplement of paper PMC10307832.

compound: CC1=C(N=C(N=C1N)[C@H](CC(=O)N)NC[C@@H](C(=O)N)N)C(=O)N[C@@H]([C@H](C2=CN=CN2)OC3C(C(C(C(O3)CO)O)O)OC4C(C(C(C(O4)CO)O)OC(=O)N)O)C(=O)N[C@H](C)[C@H]([C@H](C)C(=O)N[C@@H]([C@@H](C)O)C(=O)NCCC5=NC(=CS5)C6=NC(=CS6)C(=O)NCCC[S+](C)C)O [Bleomycin] + Nc1ncn([C@H]2C[C@H](O)[C@@H](CO)O2)c(=O)n1 [Decitabine] (partner 2 µM); assay: relative viability (nuclei count vs DMSO), 5 days (fraction); higher = more cells survive; conditions: first compound 0.01 µM; main component drawn
Procedure, shortened: (§1)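 Lung cancer cell lines were pin-tool dosed in 1536-well plates on the day after seeding, with either a lone drug or a fixed anchor-drug dose plus five library-drug doses (not always all listed) in √10 steps. Nuclei were counted on 4× images after 5 days. Relative viability is the ratio of treated-well to vehicle-well nuclei counts, with each value a median of duplicate plates.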

Cell Line	relative viability
NCI-H2126	0.626
NCI-H2342	0.692
SK-MES-1	0.321
H3255	0.582
NCI-H2170	0.437
A549	0.234
SW 900	0.377
NCI-H1648	0.412
NCI-H1395	0.563
NCI-H1793	0.483
NCI-H1944	0.365
ABC-1	0.911
NCI-H358	0.198

same assay, conditions: first compound 0.03162 µM; main component drawn

Cell Line	relative viability
NCI-H522	0.777
NCI-H838	0.369
NCI-H1650	0.253
NCI-H1993	0.507
NCI-H2087	0.27
PC-14	0.158
LCLC-103H	0.68
NCI-H596	0.83
EMC-BAC-2	0.712
NCI-H2085	0.551
HCC-366	0.26
NCI-H1666	0.56
NCI-H647	0.183
LK-2	0.241
NCI-H2126	0.621
NCI-H2342	0.624
SK-MES-1	0.356
H3255	0.631
NCI-H2170	0.42
A549	0.137
SW 900	0.406
NCI-H1648	0.387
NCI-H1395	0.593
NCI-H1793	0.472
NCI-H1944	0.321
ABC-1	0.837
NCI-H358	0.271

same assay, conditions: first compound 0.1 µM; main component drawn

Cell Line	relative viability
NCI-H522	0.608
NCI-H838	0.297
NCI-H1650	0.163
NCI-H1993	0.556
NCI-H2087	0.229
PC-14	0.0921
LCLC-103H	0.677
NCI-H596	0.55
EMC-BAC-2	0.538
NCI-H2085	0.418
HCC-366	0.132
NCI-H1666	0.505
NCI-H647	0.152
LK-2	0.184
NCI-H2126	0.601
NCI-H2342	0.619
SK-MES-1	0.305
H3255	0.586
NCI-H2170	0.39
A549	0.218
SW 900	0.334
NCI-H1648	0.466
NCI-H1395	0.513
NCI-H1793	0.37
NCI-H1944	0.275
ABC-1	1.01
NCI-H358	0.189

same assay, conditions: first compound 0.3162 µM; main component drawn

Cell Line	relative viability
NCI-H522	0.405
NCI-H838	0.228
NCI-H1650	0.184
NCI-H1993	0.519
NCI-H2087	0.144
PC-14	0.0512
LCLC-103H	0.721
NCI-H596	0.495
EMC-BAC-2	0.342
NCI-H2085	0.421
HCC-366	0.069
NCI-H1666	0.442
NCI-H647	0.0939
LK-2	0.121
NCI-H2126	0.567
NCI-H2342	0.547
SK-MES-1	0.177
H3255	0.414
NCI-H2170	0.32
A549	0.0867
SW 900	0.234
NCI-H1648	0.467
NCI-H1395	0.394
NCI-H1793	0.175
NCI-H1944	0.252
ABC-1	0.803
NCI-H358	0.172

same assay, conditions: first compound 1 µM; main component drawn

Cell Line	relative viability
NCI-H522	0.399
NCI-H838	0.478
NCI-H1650	0.146
NCI-H1993	0.436
NCI-H2087	0.183
PC-14	0.0367
LCLC-103H	0.537
NCI-H596	0.509
EMC-BAC-2	0.328
NCI-H2085	0.339
HCC-366	0.0541
NCI-H1666	0.388
NCI-H647	0.0806
LK-2	0.142
NCI-H2126	0.566
NCI-H2342	0.556
SK-MES-1	0.164
H3255	0.342
NCI-H2170	0.271
A549	0.0646
SW 900	0.244
NCI-H1648	0.334
NCI-H1395	0.305
NCI-H1793	0.246
NCI-H1944	0.159
ABC-1	0.591
NCI-H358	0.152

compound: COc1cc([C@@H]2c3cc4c(cc3[C@@H](O[C@@H]3O[C@@H]5CO[C@@H](C)O[C@H]5[C@H](O)[C@H]3O)[C@H]3COC(=O)[C@H]23)OCO4)cc(OC)c1O [Etoposide] + C[C@@H](Oc1cc(-c2cnn(C3CCNCC3)c2)cnc1N)c1c(Cl)ccc(F)c1Cl [Crizotinib] (partner 1 µM); assay: as above; conditions: first compound 0.01 µM
Procedure, shortened: as §1

Cell Line	relative viability
NCI-H838	0.85
NCI-H1650	0.874
EBC-1	0.189
NCI-H1993	0.758
PC-14	0.957
LCLC-103H	1.09
NCI-H596	1.02
NCI-H2228	0.633
EMC-BAC-2	0.661
